Assay results from ChEMBL document CHEMBL1255373, “In vitro antibacterial activity of CE-156811, a novel analog derived from hygromycin A” (2008).
In brackets after ≈: the same amount, converted by molar mass.

Assays:
Format in all cases: functional
Haemophilus influenzae = test: Antibacterial activity against Haemophilus influenzae clinical isolate by broth microdilution method
Moraxella catarrhalis = test: Antibacterial activity against Moraxella catarrhalis clinical isolate by broth microdilution method
Citrobacter koseri = test: Antibacterial activity against Citrobacter diversus clinical isolate by broth microdilution method
Escherichia coli = test: Antibacterial activity against Escherichia coli clinical isolate by broth microdilution method
[1] = system: Stenotrophomonas maltophilia; test: Antibacterial activity against Stenotrophomonas maltophilia clinical isolate by broth microdilution method
Morganella morganii = test: Antibacterial activity against Morganella morganii clinical isolate by broth microdilution method
Citrobacter freundii = test: Antibacterial activity against Citrobacter freundii clinical isolate by broth microdilution method
Klebsiella pneumoniae [2] = test: Antibacterial activity against Klebsiella pneumoniae clinical isolate by broth microdilution method
Burkholderia cepacia = test: Antibacterial activity against Burkholderia cepacia clinical isolate by broth microdilution method
Providencia rettgeri = test: Antibacterial activity against Providencia rettgeri clinical isolate by broth microdilution method
Klebsiella oxytoca = test: Antibacterial activity against Klebsiella oxytoca clinical isolate by broth microdilution method
Serratia marcescens = test: Antibacterial activity against Serratia marcescens clinical isolate by broth microdilution method
Klebsiella aerogenes = test: Antibacterial activity against Enterobacter aerogenes clinical isolate by broth microdilution method
Enterobacter cloacae = test: Antibacterial activity against Enterobacter cloacae clinical isolate by broth microdilution method
Shigella sp. = test: Antibacterial activity against Shigella sp. by broth microdilution method
Salmonella sp. = test: Antibacterial activity against Salmonella sp. by broth microdilution method
Proteus vulgaris = test: Antibacterial activity against Proteus vulgaris clinical isolate by broth microdilution method
Acinetobacter sp. = test: Antibacterial activity against Acinetobacter sp. by broth microdilution method
Klebsiella pneumoniae [3] = test: Antibacterial activity against extended-spectrum beta-lactamase producing Klebsiella pneumoniae clinical isolate by broth microdilution method
Proteus mirabilis = test: Antibacterial activity against Proteus mirabilis clinical isolate by broth microdilution method
Pseudomonas aeruginosa = test: Antibacterial activity against Pseudomonas aeruginosa clinical isolate by broth microdilution method
Enterococcus faecium [4] = test: Antibacterial activity against linezolid-resistant Enterococcus faecium 03B1077 by broth microdilution method
Enterococcus faecium [5] = test: Antibacterial activity against linezolid-resistant Enterococcus faecium 03B1073 by broth microdilution method
Enterococcus faecalis [6] = test: Antibacterial activity against […] Enterococcus faecalis ATCC 29212 by broth microdilution method
Enterococcus faecium [7] = test: Antibacterial activity against linezolid-resistant Enterococcus faecium 03B1075 by broth microdilution method
Staphylococcus aureus [8] = test: Antibacterial activity against […] Staphylococcus aureus ATCC 29213 by broth microdilution method
Enterococcus faecium [9] = test: Antibacterial activity against linezolid-resistant Enterococcus faecium 03B1076 by broth microdilution method
Enterococcus faecalis [10] = test: Antibacterial activity against linezolid-resistant Enterococcus faecalis 03A1128 by broth microdilution method
Enterococcus faecium [11] = test: Antibacterial activity against linezolid-resistant Enterococcus faecium 03B1074 by broth microdilution method
Staphylococcus aureus [12] = test: Antibacterial activity against linezolid-resistant Staphylococcus aureus 01A1221 by broth microdilution method
Enterococcus faecium [13] = test: Antibacterial activity against linezolid-resistant Enterococcus faecium 03B1078 by broth microdilution method
Staphylococcus aureus [14] = test: Antibacterial activity against linezolid-resistant Staphylococcus aureus 01A1220 by broth microdilution method

CC1(C)S[C@@H]2[C@H](NC(=O)[C@H](N)c3ccc(O)cc3)C(=O)N2[C@H]1C(=O)O [AMOXICILLIN]
MIC50 (Haemophilus influenzae): 2 µg/mL (≈ 5.47 µM)
MIC90 (Haemophilus influenzae): 32 µg/mL (≈ 87.6 µM)
MIC50 (Moraxella catarrhalis): 1 µg/mL (≈ 2.74 µM)
MIC90 (Moraxella catarrhalis): 8 µg/mL (≈ 21.9 µM)

CC(C)(O/N=C(\C(=O)N[C@@H]1C(=O)N2C(C(=O)[O-])=C(C[n+]3ccccc3)CS[C@H]12)c1csc(N)n1)C(=O)O [CEFTAZIDIME]
MIC50 (Citrobacter koseri): 0.5 µg/mL (≈ 0.915 µM)
MIC90 (Citrobacter koseri): > 64 µg/mL
MIC50 (Escherichia coli): 0.5 µg/mL (≈ 0.915 µM)
MIC90 (Escherichia coli): > 64 µg/mL
MIC50 [1]: 16 µg/mL (≈ 29.3 µM)
MIC90 [1]: > 64 µg/mL
MIC50 (Morganella morganii): 0.5 µg/mL (≈ 0.915 µM)
MIC90 (Morganella morganii): > 64 µg/mL
MIC50 (Citrobacter freundii): 0.5 µg/mL (≈ 0.915 µM)
MIC90 (Citrobacter freundii): > 64 µg/mL
MIC50 (Klebsiella pneumoniae [2]): 0.5 µg/mL (≈ 0.915 µM)
MIC90 (Klebsiella pneumoniae [2]): > 64 µg/mL
MIC50 (Burkholderia cepacia): 16 µg/mL (≈ 29.3 µM)
MIC90 (Burkholderia cepacia): > 64 µg/mL
MIC50 (Providencia rettgeri): 0.5 µg/mL (≈ 0.915 µM)
MIC90 (Providencia rettgeri): > 64 µg/mL
MIC50 (Klebsiella oxytoca): 0.5 µg/mL (≈ 0.915 µM)
MIC90 (Klebsiella oxytoca): > 64 µg/mL
MIC50 (Serratia marcescens): 0.5 µg/mL (≈ 0.915 µM)
MIC90 (Serratia marcescens): > 64 µg/mL
MIC50 (Klebsiella aerogenes): 0.5 µg/mL (≈ 0.915 µM)
MIC90 (Klebsiella aerogenes): > 64 µg/mL
MIC50 (Enterobacter cloacae): 0.5 µg/mL (≈ 0.915 µM)
MIC90 (Enterobacter cloacae): > 64 µg/mL
MIC50 (Shigella sp.): 0.5 µg/mL (≈ 0.915 µM)
MIC90 (Shigella sp.): > 64 µg/mL
MIC50 (Salmonella sp.): 0.5 µg/mL (≈ 0.915 µM)
MIC90 (Salmonella sp.): > 64 µg/mL
MIC50 (Proteus vulgaris): 0.5 µg/mL (≈ 0.915 µM)
MIC90 (Proteus vulgaris): > 64 µg/mL
MIC50 (Acinetobacter sp.): 16 µg/mL (≈ 29.3 µM)
MIC90 (Acinetobacter sp.): > 64 µg/mL
MIC50 (Klebsiella pneumoniae [3]): 0.5 µg/mL (≈ 0.915 µM)
MIC90 (Klebsiella pneumoniae [3]): > 64 µg/mL
MIC50 (Proteus mirabilis): 0.5 µg/mL (≈ 0.915 µM)
MIC90 (Proteus mirabilis): > 64 µg/mL
MIC50 (Pseudomonas aeruginosa): 16 µg/mL (≈ 29.3 µM)
MIC90 (Pseudomonas aeruginosa): > 64 µg/mL

O=C(N[C@H](CO)[C@H](O)c1ccc([N+](=O)[O-])cc1)C(Cl)Cl [CHLORAMPHENICOL]
MIC (Enterococcus faecium [4]): 8 µg/mL (≈ 24.8 µM)
MIC (Enterococcus faecium [5]): 8 µg/mL (≈ 24.8 µM)
MIC (Enterococcus faecalis [6]): 8 µg/mL (≈ 24.8 µM)
MIC (Enterococcus faecium [7]): 32 µg/mL (≈ 99 µM)
MIC (Staphylococcus aureus [8]): 8 µg/mL (≈ 24.8 µM)
MIC (Enterococcus faecium [9]): 32 µg/mL (≈ 99 µM)
MIC (Enterococcus faecalis [10]): > 32 µg/mL
MIC (Enterococcus faecium [11]): 32 µg/mL (≈ 99 µM)
MIC (Staphylococcus aureus [12]): 32 µg/mL (≈ 99 µM)
MIC (Enterococcus faecium [13]): 16 µg/mL (≈ 49.5 µM)
MIC (Staphylococcus aureus [14]): > 32 µg/mL
